# Reference: patent US4643734A, “Lactide/caprolactone polymer, method of making the same, composites thereof, and prostheses produced therefrom” (Hexcel Corporation, priority 1983, dated 1987)
# Assays:
# Type in all cases: cell-based
# [1] = test system: Salmonella typhimurium TA 98; assay: Ames plate incorporation assay, TA98
# Procedure: (§1) A Salmonella/mammalian mutagenicity test was performed to determine if a saline extract of the polymer would cause mutagenic changes in histidine dependent mutant strains of Salmonella typhimurium. The method of Ames et al as reported in Methods for Detecting Carcinogens and Mutagens with the Salmonella/Mammalian Mutagenicity Test (1975) was employed.
# (§2) Test sample--a polymer, saline (0.85%) extract was prepared by adding 4 grams of sample to 20 ml of saline and autoclaving at 121° C. for one hour.
# (§3) Bacterial test strains--four strains of specially constructed histidine mutants of Salmonella typhimurium, TA 98, TA 100, TA 1535 and TA 1537, developed by Dr. B. Ames, University of California, Berkeley were employed.
# (§4) Activation system--S-9 Activation Mix is composed mainly of the microsomal fraction from a rat liver homogenate. The S-9 mix was used for the detection of mutagenic properties that require metabolic biotransformation to their active mutagenic form. […]
# (§5) Ames plate incorporation assay--the principle technique of the Ames test consists of a plate incorporation assay from which direct revertant colony counts are obtained from the test plates. […] Following a 48 hour incubation period at 30° C., the number of colonies in each test plate are recorded as revertant colonies for comparison with spontaneous revertant rates for each strain.
# [2] = test system: Salmonella typhimurium TA 100; assay: Ames plate incorporation assay, TA100
# Procedure: as §1, §2, §3
# Activation system--S-9 Activation Mix is composed mainly of the microsomal fraction from a rat liver homogenate. The S-9 mix was used for the detection of mutagenic properties that require metabolic biotransformation to their active mutagenic form. S-9 mix employed was Aroclor 1254--induced(Litton Bionetics, Inc., Kensington, Md., Lot #REL 091).
# Negative controls--the solvent elution vehicle was test with each bacterial strain to determine the number of spontaneous revertant colonies for each test population.
# MDA requires metabolic activation to induce mutagenic results; therefore, it was tested (on strain TA 100 only) with and without S-9 mix to verify the bioactivation properties of the S-9 rat liver preparation.
# Ames plate incorporation assay--the principle technique of the Ames test consists of a plate incorporation assay from which direct revertant colony counts are obtained from the test plates. Minimal nutrient agar plates are seeded with both a tester strain population and the test solution suspended together in a semi-solid overlay. Test plates are prepared providing for either the presence or absence of S-9 activation mix supplemented in the overlay. Following a 48 hour incubation period at 30° C., the number of colonies in each test plate are recorded as revertant colonies for comparison with spontaneous revertant rates for each strain.
# [3] = test system: Salmonella typhimurium TA 1535; assay: Ames plate incorporation assay, TA1535
# Procedure: as §1, §2, §3, §4, §5
# [4] = test system: Salmonella typhimurium TA 1537; assay: Ames plate incorporation assay, TA1537
# Procedure: as §1, §2, §3, §4, §5
Compound,"Number of Revertant Colonies (Average of Duplicate Plates) ([1]; TA98, w/S-9)","Number of Revertant Colonies (Average of Duplicate Plates) ([1]; TA98, without S-9)","Number of Revertant Colonies (Average of Duplicate Plates) ([2]; TA100, w/S-9)","Number of Revertant Colonies (Average of Duplicate Plates) ([2]; TA100, without S-9)","Number of Revertant Colonies (Average of Duplicate Plates) ([3]; TA1535, w/S-9)","Number of Revertant Colonies (Average of Duplicate Plates) ([3]; TA1535, without S-9)","Number of Revertant Colonies (Average of Duplicate Plates) ([4]; TA1537, w/S-9)","Number of Revertant Colonies (Average of Duplicate Plates) ([4]; TA1537, without S-9)"
CN(C)c1ccc(N=NS(=O)(=O)[O-])cc1.[Na+] [Dexon],430.0,422.0,388.5,377.0,26.5,28.0,230.0,216.0
"Nc1ccc(Cc2ccc(N)cc2)cc1 [MDA, methylene dianiline]",–,–,223.0,73.0,–,–,–,–
